Laboratory results: patent publication US11716992B2, “5A5B6C tricyclic spirolactone derivative, preparation method therefor and use thereof” (NANKAI UNIVERSITY, priority 2017, dated 2023)
Several values for one entry are separate records, joined by “and”; a condition that tells them apart may be missing. Identical values can stand only once. Like-named read-outs stand apart in the source and are kept apart here.

Legend:
[1] = system: Rhizoctonia cerealis; assay: Fungicidal activity, fungicide growth rate method, RC; format: cell-based; conditions: Ceratobasidium cereale, 50 μg/mL; read-out: fungicidal activity (growth inhibition rate), RC
[2] = system: Ostrinia furnacalis; assay: Insecticidal activity against Ostrinia furnacalis; format: in vivo; conditions: Ostrinia furnacalis; 100 μg/mL; read-out: insecticidal activity, Ostrinia furnacalis
[3] = system: wheat Gibberella zeae; assay: microbe, parasite or virus in culture; format: cell-based; conditions: Fusarium graminearum, read-out: fungicidal activity (growth inhibition rate), GZ, 50 μg/mL
[4] = system: Cercospora arachidicola; assay: Fungicidal activity, fungicide growth rate method, CA; format: cell-based; conditions: Mycosphaerella arachidis, 50 μg/mL; read-out: fungicidal activity (growth inhibition rate), CA
[5] = system: Helicoverpa armigera (Hübner); assay: Insecticidal activity against Helicoverpa armigera (Hübner); format: in vivo; conditions: Helicoverpa armigera; 100 μg/mL; read-out: insecticidal activity, Helicoverpa armigera (Hübner)
[6] = system: Pellicularia sasakii; assay: Fungicidal activity, fungicide growth rate method, PS; format: cell-based; conditions: 50 μg/mL; read-out: fungicidal activity (growth inhibition rate), PS
[7] = system: Botrytis cinerea; assay: Fungicidal activity, fungicide growth rate method, BC; format: cell-based; conditions: Botrytis cinerea, 50 μg/mL; read-out: fungicidal activity (growth inhibition rate), BC
[8] = system: Mythimna separate (Walker); assay: Insecticidal activity against Mythimna separate (Walker); format: in vivo; conditions: Mythimna, 100 μg/mL; read-out: insecticidal activity, Mythimna separate (Walker)
[9] = system: Physalospora piricola; assay: Fungicidal activity, fungicide growth rate method, PP; format: cell-based; conditions: 50 μg/mL; read-out: fungicidal activity (growth inhibition rate), PP
[10] = system: Alternaria solani; assay: Fungicidal activity, fungicide growth rate method, AS; format: cell-based; conditions: Alternaria solani, 50 μg/mL; read-out: fungicidal activity (growth inhibition rate), AS
[11] = system: Apis mellifera ligustica Spin; conditions: for Death number after 24 h / Death number after 48 h: per replicate of 10 bees
[12] = system: Phytophthora infestans (Mont.) de Bary; assay: microbe, parasite or virus in culture; format: cell-based; conditions: Phytophthora infestans, read-out: fungicidal activity (growth inhibition rate), PI, 50 μg/mL
[13] = system: Caenorhabditis elegans; assay: Insecticidal activity against Caenorhabditis elegans; format: in vivo; conditions: Caenorhabditis elegans, 100 μg/mL; read-out: insecticidal activity, Caenorhabditis elegans
[14] = system: Sclerotinia sclerotiorum; assay: Fungicidal activity, fungicide growth rate method, SS; format: cell-based; conditions: Sclerotinia sclerotiorum, 50 μg/mL

C=CC[C@@H]1C[C@]2(O)CC(O)O[C@@]23CC=CC[C@H]13 (some centres unmarked) [Zyj07-29]
inhibition at 50 µg/mL [1]: 0%
pest or weed control at 100 µg/mL [2]: 10%
inhibition at 50 µg/mL [3]: 7%
inhibition at 50 µg/mL [4]: 5%
pest or weed control at 100 µg/mL [5]: 15%
inhibition at 50 µg/mL [6]: 0%
inhibition at 50 µg/mL [7]: 27%
pest or weed control at 100 µg/mL [8]: > 30%
inhibition at 50 µg/mL [9]: 45%
inhibition at 50 µg/mL [10]: 0%
Death rate after 48 h (%) ([11]; dosage 3.68 μg a.i./bee): 5.0%
Death number after 24 h ([11]; dosage 3.68 μg a.i./bee): 0
Death number after 48 h ([11]; dosage 3.68 μg a.i./bee): 0 and 1
Death rate after 48 h (%) ([11]; dosage 4.39 μg a.i./bee): 0%
Death number after 24 h ([11]; dosage 4.39 μg a.i./bee): 0
Death number after 48 h ([11]; dosage 4.39 μg a.i./bee): 0
inhibition at 50 µg/mL [12]: 25%
pest or weed control at 100 µg/mL [13]: > 30%

C=CC[C@@H]1C[C@]2(O)CCO[C@@]23CC=CC[C@H]13 [Zyj07-30]
inhibition at 50 µg/mL [1]: 13%
pest or weed control at 100 µg/mL [2]: 0%
inhibition at 50 µg/mL [3]: 3%
inhibition at 50 µg/mL [4]: 14%
pest or weed control at 100 µg/mL [5]: 0%
inhibition at 50 µg/mL [6]: 27%
inhibition at 50 µg/mL [7]: 39%
pest or weed control at 100 µg/mL [8]: 0%
inhibition at 50 µg/mL [9]: 0%
inhibition at 50 µg/mL [10]: 0%
Death rate after 48 h (%) ([11]; dosage 9.77 μg a.i./bee): 15.0%
Death number after 24 h ([11]; dosage 9.77 μg a.i./bee): 0
Death number after 48 h ([11]; dosage 9.77 μg a.i./bee): 1 and 2
Death rate after 48 h (%) ([11]; dosage 19.8 μg a.i./bee): 5.0%
Death number after 24 h ([11]; dosage 19.8 μg a.i./bee): 0
Death number after 48 h ([11]; dosage 19.8 μg a.i./bee): 1 and 0
inhibition at 50 µg/mL [12]: 15%
pest or weed control at 100 µg/mL [13]: 7%

C=CC[C@@H]1C[C@@]2(OC(C)=O)C[C@@H](CC=C)[C@H]3CC=CC[C@@]32O1 [Zyj07-38]
pest or weed control at 100 µg/mL [2]: 5%
inhibition at 50 µg/mL [4]: > 50%
pest or weed control at 100 µg/mL [5]: 10%
pest or weed control at 100 µg/mL [8]: 15%
pest or weed control at 100 µg/mL [13]: > 30%

C=CC[C@@H]1C[C@]2(OC(C)=O)C[C@@H](OC(C)=O)O[C@@]23C[C@H]2O[C@H]2C[C@H]13 [Zyj07-65-1]
pest or weed control at 100 µg/mL [2]: 5%
pest or weed control at 100 µg/mL [5]: 10%
pest or weed control at 100 µg/mL [8]: 25%
Death rate after 48 h (%) ([11]; dosage 7.54 μg a.i./bee): 10.0%
Death number after 24 h ([11]; dosage 7.54 μg a.i./bee): 0 and 1
Death number after 48 h ([11]; dosage 7.54 μg a.i./bee): 0 and 2
Death rate after 48 h (%) ([11]; dosage 18.1 μg a.i./bee): 10.0%
Death number after 24 h ([11]; dosage 18.1 μg a.i./bee): 0 and 1
Death number after 48 h ([11]; dosage 18.1 μg a.i./bee): 0 and 2
pest or weed control at 100 µg/mL [13]: 12%

C=CC[C@@H]1C[C@@]2(O)C[C@@H](CC=C)[C@H]3CC[C@@H](O)C[C@@]32O1 [Zyj07-69]
pest or weed control at 100 µg/mL [2]: 10%
pest or weed control at 100 µg/mL [5]: 15%
pest or weed control at 100 µg/mL [8]: 25%
Death rate after 48 h (%) ([11]; dosage 9.71 μg a.i./bee): 5.0%
Death number after 24 h ([11]; dosage 9.71 μg a.i./bee): 0
Death number after 48 h ([11]; dosage 9.71 μg a.i./bee): 0 and 1
pest or weed control at 100 µg/mL [13]: 10%

C=CC[C@@H]1CC2=CC(=O)O[C@@]23CC=CC[C@H]13 [Zyj07-92]
inhibition at 50 µg/mL [1]: > 70%
pest or weed control at 100 µg/mL [2]: 0%
pest or weed control at 100 µg/mL [5]: 0%
inhibition at 50 µg/mL [6]: 40%
inhibition at 50 µg/mL [7]: 30%
pest or weed control at 100 µg/mL [8]: 20%
inhibition at 50 µg/mL [10]: > 60%
Death rate after 48 h (%) ([11]; dosage 7.44 μg a.i./bee): 5.0%
Death number after 24 h ([11]; dosage 7.44 μg a.i./bee): 0
Death number after 48 h ([11]; dosage 7.44 μg a.i./bee): 0 and 1
Death rate after 48 h (%) ([11]; dosage 14.3 μg a.i./bee): 5.0%
Death number after 24 h ([11]; dosage 14.3 μg a.i./bee): 0
Death number after 48 h ([11]; dosage 14.3 μg a.i./bee): 0 and 1
inhibition at 50 µg/mL [12]: 15%
inhibition at 50 µg/mL [14]: 38%

O=C1C[C@@]2(O)CC[C@H]3C[C@@H](O)[C@@H](Cl)C[C@@]32O1 [Zyj07-103]
inhibition at 50 µg/mL [1]: 4%
pest or weed control at 100 µg/mL [2]: 10%
inhibition at 50 µg/mL [3]: 47%
inhibition at 50 µg/mL [4]: 38%
pest or weed control at 100 µg/mL [5]: 15%
inhibition at 50 µg/mL [6]: 0%
inhibition at 50 µg/mL [7]: 27%
pest or weed control at 100 µg/mL [8]: > 30%
inhibition at 50 µg/mL [9]: > 50%
inhibition at 50 µg/mL [12]: 42%
